From PMC4505863 (ACS Chemical Neuroscience, 2014)

What was measured:
human 5-HT2C receptor [1] = molecular target: T1, human 5-HT2C receptor (Homo sapiens, UniProt P28335); experiment: h5-HT2C affinity, agonist radioligand [125I]DOI; format: binding
T1 sequence (P28335 33-458): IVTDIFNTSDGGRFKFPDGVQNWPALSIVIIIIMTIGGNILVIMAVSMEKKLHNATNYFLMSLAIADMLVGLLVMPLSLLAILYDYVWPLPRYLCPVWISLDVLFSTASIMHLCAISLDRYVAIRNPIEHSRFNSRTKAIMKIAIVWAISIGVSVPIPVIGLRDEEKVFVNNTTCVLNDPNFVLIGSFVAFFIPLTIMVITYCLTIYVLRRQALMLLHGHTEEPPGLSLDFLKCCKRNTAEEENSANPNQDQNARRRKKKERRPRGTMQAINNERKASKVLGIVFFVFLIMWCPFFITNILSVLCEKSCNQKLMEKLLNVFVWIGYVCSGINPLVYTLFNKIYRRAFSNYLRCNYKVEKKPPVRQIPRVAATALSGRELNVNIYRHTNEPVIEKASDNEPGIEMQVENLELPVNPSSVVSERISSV

h5-HT2B = h5-HT2B (Homo sapiens, UniProt P41595); experiment: Ca2+ mobilization assay; format: cell-based; conditions: for Emax: HEK293, read-out: h5-HT2B Emax
5-HT2B = 5-HT2B (Homo sapiens, UniProt P41595); experiment: PDSP screening affinity 5-HT2B; format: binding
h5-HT2A = h5-HT2A (Homo sapiens, UniProt P28223); experiment: Ca2+ mobilization assay; format: cell-based; conditions: for Emax: HEK293, read-out: h5-HT2A Emax, percentage of the maximum response to 5-HT
human 5-HT2C receptor [2] = molecular target: T1, human 5-HT2C receptor; experiment: h5-HT2C affinity, antagonist radioligand [3H]mesulergine; format: binding
Male C57BL/6J mice = experiment: Mouse head twitch response; conditions: for max counts: HTR counts; for ED50: Mus musculus, sc, read-out: ED50 mg/kg (95% CI), mouse head twitch; for magnitude of peak effect × vehicle / maximally effective dose: mouse head twitch
5-HT3 = molecular target: T2, 5-HT3 (Homo sapiens, UniProt P46098); experiment: PDSP screening affinity 5-HT3; format: binding
T2 sequence (P46098 24-478): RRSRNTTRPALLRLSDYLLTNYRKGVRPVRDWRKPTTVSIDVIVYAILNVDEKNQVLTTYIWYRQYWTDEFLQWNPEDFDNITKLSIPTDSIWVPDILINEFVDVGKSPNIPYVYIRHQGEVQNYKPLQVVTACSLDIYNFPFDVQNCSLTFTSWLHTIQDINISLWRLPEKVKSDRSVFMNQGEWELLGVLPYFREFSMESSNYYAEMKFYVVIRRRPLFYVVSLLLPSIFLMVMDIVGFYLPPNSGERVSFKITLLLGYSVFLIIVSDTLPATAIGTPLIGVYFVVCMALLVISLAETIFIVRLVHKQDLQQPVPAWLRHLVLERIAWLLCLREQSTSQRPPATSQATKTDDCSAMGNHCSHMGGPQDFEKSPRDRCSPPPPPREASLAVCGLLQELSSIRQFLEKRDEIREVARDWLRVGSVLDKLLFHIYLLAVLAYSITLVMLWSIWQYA

5-HT6 = 5-HT6 (Homo sapiens, UniProt P50406); experiment: PDSP screening affinity 5-HT6; format: binding; conditions: 5-HT6 affinity
h5-HT2C = molecular target: T3, h5-HT2C (Homo sapiens, UniProt P28335); experiment: Ca2+ mobilization assay; format: cell-based; conditions: for Emax: HEK293, read-out: h5HT2C Emax
T3 sequence (P28335 33-458): T1 sequence (P28335 33-458)

5-ht5a = 5-ht5a (Homo sapiens, UniProt P47898); experiment: PDSP screening affinity 5-ht5a; format: binding; conditions: 5-ht5a affinity
5-HT2A receptor [3] = molecular target: T4, 5-HT2A receptor (Homo sapiens, UniProt P28223); experiment: h5-HT2A affinity, agonist radioligand [125I]DOI; format: binding
5-HT1A = molecular target: T5, 5-HT1A (Homo sapiens, UniProt P08908); experiment: PDSP screening affinity 5-HT1A; format: binding; conditions: 5-HT1A affinity
T5 sequence (P08908 1-422): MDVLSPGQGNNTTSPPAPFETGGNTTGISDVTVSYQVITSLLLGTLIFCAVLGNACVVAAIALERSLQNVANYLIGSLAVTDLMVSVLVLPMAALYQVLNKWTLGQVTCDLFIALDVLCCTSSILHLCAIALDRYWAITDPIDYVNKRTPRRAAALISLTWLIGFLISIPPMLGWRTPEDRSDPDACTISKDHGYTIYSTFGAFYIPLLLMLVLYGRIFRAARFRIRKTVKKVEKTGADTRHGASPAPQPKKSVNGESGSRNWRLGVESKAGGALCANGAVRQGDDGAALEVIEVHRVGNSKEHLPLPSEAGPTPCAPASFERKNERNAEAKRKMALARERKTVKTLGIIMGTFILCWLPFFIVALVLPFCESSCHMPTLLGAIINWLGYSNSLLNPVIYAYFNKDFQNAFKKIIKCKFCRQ

r5-HT2C = molecular target: T6, r5-HT2C (Rattus norvegicus, UniProt P08909); experiment: Ca2+ mobilization assay; format: cell-based; conditions: for EC50: r5-HT2C EC50, Ca2+ mobilization; for Emax: read-out: r5-HT2C Emax
T6 sequence (P08909 33-460): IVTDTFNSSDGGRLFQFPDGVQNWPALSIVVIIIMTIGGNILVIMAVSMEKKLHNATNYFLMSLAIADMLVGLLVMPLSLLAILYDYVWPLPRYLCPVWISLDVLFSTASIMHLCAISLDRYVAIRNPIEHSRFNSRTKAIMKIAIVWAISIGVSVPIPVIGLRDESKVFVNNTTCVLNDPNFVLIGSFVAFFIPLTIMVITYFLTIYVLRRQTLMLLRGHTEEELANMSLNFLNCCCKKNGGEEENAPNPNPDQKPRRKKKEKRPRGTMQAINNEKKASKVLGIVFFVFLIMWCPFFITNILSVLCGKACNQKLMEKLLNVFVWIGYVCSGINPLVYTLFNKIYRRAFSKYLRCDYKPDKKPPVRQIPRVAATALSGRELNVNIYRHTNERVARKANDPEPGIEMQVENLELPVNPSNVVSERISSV

r5-HT2A = r5-HT2A (Rattus norvegicus, UniProt P14842); experiment: Ca2+ mobilization assay; format: cell-based; conditions: for EC50: r5-HT2A EC50, Ca2+ mobilization; for Emax: read-out: r5-HT2A Emax, percentage of the maximum response to 5-HT
5-ht1e = 5-ht1e (Homo sapiens, UniProt P28566); experiment: PDSP screening affinity 5-ht1e; format: binding
5-HT1B = 5-HT1B (Homo sapiens, UniProt P28222); experiment: PDSP screening affinity 5-HT1B; format: binding
5-HT1D = 5-HT1D (Homo sapiens, UniProt P28221); experiment: PDSP screening affinity 5-HT1D; format: binding
5-HT2A receptor [4] = molecular target: T4, 5-HT2A receptor; experiment: h5-HT2A affinity, antagonist radioligand [3H]ketanserin; format: binding
5-HT7 = 5-HT7 (Homo sapiens, UniProt P34969); experiment: PDSP screening affinity 5-HT7; format: binding; conditions: 5-HT7 affinity
[5] = h5-HT2B EC50, Ca2+ mobilization

5-HT1B, sequence (P28222 whole entry): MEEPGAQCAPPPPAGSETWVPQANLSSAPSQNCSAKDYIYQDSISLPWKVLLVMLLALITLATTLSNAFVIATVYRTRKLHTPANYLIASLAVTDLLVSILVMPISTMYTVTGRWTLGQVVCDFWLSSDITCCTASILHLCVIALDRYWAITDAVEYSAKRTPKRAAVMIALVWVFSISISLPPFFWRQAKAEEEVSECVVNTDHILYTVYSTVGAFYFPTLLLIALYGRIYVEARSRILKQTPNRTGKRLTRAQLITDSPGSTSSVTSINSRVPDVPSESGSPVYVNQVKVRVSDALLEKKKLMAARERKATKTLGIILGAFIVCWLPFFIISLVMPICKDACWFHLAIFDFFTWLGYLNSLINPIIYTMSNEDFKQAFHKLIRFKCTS
5-HT7, sequence (P34969 whole entry): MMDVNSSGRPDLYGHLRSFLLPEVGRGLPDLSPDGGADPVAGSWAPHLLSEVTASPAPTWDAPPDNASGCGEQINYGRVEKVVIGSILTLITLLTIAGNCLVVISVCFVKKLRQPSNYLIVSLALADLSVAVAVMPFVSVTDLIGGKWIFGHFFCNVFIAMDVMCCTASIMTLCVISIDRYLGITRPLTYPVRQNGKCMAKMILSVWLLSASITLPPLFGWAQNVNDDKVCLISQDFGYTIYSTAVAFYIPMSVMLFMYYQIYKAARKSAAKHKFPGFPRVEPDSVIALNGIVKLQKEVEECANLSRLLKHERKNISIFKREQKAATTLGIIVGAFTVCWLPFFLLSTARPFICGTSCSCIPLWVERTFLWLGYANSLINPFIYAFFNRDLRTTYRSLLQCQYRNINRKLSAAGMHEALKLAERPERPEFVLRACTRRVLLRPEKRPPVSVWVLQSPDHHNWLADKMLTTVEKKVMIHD
5-HT6, sequence (P50406 whole entry): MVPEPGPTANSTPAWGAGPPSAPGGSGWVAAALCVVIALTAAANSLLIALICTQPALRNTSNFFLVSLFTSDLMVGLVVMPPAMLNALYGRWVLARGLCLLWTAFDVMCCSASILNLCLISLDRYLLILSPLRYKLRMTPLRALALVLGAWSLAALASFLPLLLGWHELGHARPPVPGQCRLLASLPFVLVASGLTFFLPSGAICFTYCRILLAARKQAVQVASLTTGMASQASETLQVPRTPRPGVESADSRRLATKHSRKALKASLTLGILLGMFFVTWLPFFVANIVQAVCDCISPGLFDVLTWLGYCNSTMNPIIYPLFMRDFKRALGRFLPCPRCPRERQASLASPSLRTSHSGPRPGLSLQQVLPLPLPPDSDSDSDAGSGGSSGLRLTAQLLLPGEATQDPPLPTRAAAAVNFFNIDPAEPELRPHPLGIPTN
5-ht1e, sequence (P28566 whole entry): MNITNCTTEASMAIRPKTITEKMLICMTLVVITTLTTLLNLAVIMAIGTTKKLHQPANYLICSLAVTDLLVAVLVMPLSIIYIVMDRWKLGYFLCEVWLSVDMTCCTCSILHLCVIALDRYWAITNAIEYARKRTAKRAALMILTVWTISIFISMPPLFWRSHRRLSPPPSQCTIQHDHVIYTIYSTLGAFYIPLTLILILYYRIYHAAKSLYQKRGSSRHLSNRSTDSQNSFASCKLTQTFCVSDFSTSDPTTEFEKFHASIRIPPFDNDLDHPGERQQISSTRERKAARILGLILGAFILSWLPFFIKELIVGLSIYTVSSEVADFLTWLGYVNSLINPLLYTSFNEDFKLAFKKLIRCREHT
5-HT1D, sequence (P28221 whole entry): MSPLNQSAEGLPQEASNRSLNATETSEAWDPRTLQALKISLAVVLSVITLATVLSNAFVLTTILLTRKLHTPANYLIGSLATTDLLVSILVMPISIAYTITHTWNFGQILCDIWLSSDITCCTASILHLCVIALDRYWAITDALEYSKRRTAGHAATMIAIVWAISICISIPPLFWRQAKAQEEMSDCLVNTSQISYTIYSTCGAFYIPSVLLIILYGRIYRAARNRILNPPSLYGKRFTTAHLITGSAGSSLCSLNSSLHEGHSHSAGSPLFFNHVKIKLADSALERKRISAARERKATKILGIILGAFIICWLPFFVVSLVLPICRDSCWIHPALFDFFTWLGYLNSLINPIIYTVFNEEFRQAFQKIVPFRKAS
5-ht5a, sequence (P47898 whole entry): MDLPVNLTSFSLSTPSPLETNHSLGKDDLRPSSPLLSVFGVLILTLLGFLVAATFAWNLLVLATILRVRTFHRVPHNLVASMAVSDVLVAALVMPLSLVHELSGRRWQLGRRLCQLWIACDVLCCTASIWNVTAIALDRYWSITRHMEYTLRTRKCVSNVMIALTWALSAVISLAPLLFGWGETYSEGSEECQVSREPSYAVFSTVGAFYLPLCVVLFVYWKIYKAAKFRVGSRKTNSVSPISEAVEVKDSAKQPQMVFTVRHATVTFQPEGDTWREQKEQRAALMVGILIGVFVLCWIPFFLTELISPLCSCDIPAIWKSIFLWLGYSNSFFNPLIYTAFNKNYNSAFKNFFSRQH
h5-HT2A, sequence (P28223 whole entry): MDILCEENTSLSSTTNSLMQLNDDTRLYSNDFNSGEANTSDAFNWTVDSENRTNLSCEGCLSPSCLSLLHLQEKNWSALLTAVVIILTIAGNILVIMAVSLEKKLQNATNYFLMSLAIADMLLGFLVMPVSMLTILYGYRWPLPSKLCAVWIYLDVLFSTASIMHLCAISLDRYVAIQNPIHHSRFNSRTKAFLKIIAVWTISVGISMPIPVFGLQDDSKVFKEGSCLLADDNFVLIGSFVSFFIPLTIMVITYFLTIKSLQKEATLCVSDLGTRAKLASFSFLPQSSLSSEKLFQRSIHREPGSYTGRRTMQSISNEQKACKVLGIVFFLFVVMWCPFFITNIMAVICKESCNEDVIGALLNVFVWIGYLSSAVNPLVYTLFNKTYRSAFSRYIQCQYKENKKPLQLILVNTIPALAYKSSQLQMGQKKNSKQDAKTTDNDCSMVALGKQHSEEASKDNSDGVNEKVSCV
T4 sequence (P28223 whole entry): as above
r5-HT2A, sequence (P14842 whole entry): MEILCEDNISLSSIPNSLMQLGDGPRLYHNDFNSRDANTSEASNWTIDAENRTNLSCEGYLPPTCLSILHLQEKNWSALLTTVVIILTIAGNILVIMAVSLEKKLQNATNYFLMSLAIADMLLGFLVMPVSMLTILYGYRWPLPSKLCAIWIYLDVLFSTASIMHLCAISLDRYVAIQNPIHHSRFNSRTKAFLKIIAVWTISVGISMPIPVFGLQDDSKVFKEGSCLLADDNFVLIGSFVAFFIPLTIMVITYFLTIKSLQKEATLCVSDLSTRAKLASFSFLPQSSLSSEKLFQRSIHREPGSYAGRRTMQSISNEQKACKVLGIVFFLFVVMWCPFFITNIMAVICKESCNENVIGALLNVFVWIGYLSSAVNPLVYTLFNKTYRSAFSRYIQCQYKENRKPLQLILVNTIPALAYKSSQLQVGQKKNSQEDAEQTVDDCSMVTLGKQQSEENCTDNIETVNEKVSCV
h5-HT2B, sequence (P41595 whole entry): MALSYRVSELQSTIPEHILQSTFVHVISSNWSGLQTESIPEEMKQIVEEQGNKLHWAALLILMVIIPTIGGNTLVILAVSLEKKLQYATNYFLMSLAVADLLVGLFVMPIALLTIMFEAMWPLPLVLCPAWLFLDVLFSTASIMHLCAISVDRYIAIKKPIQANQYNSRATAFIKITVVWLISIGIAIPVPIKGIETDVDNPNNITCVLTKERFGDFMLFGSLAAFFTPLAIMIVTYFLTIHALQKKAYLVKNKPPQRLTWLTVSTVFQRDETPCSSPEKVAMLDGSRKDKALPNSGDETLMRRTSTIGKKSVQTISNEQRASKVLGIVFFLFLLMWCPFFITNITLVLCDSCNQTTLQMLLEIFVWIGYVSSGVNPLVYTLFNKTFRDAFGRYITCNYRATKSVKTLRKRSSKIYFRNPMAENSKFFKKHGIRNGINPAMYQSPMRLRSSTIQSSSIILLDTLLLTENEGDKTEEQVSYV
5-HT2B, sequence (P41595 whole entry): as above

Row | Compound | Ki (human 5-HT2C receptor [1]) | Emax (h5-HT2B) | EC50 (h5-HT2A) | Emax (h5-HT2A) | Ki (human 5-HT2C receptor [2]) | Ki (5-HT3) | Ki (5-HT6) | Emax (h5-HT2C) | EC50 (h5-HT2C; h5HT2C EC50, Ca2+ mobilization) | Ki (5-ht5a) | Ki (5-HT1A) | EC50 (r5-HT2C) | Emax (r5-HT2C) | EC50 (r5-HT2A) | Emax (r5-HT2A) | Ki (5-ht1e) | Ki (5-HT1B; 5-HT1B affinity) | Ki (5-HT1D) | Ki (5-HT2A receptor [4]) | Ki (5-HT7) | further results
1 | COc1cc(CCNCc2ccc(Br)cc2)c(OC)cc1I [Compound 4e, N-(4-Bromobenzyl)-2-(4-iodo-2,5-dimethoxyphenyl)ethan-1-amine] | 3.31 nM | 90 ± 2% | 170 nM | 88 ± 1.4% | 45.7 nM | 2460 nM | 350 nM | 77 ± 5% | 200 nM | 1850 nM | 649 nM | 290 nM | 105 ± 2% | 150 nM | 67.3 ± 0.9% | > 10000 nM | 5090 nM | 311 nM | 52.5 nM | 641 nM | EC50 (h5-HT2B; [5]): 610 nM; Ki (5-HT2B; 5-HT2B affinity): 68 nM; activity in the HTR assay (active / inactive) (Male C57BL/6J mice; SC, doses up to 30 mg/kg): None of the phenethylamines or tryptamines with 4-substituted N-benzyl groups, 4b, 4e, 5c, or 5f, was active; EC50 (h5-HT2C; h5HT2C pEC50 ± SEM, Ca2+ mobilization): 219 nM; Ki (5-HT2A receptor [3]): 3.24 nM; Ki (5-HT1B; 5-HT1B pKi ± SEM): 6030 nM
2 | COc1ccc2[nH]cc(CCNCc3cccc(Cl)c3)c2c1 [Compound 5h, N-(3-Chlorobenzyl)-2-(5-methoxy-1H-indol-3-yl)ethan-1-amine] | 4.27 nM | ≤ 15% | 14 nM | 81.2 ± 1.3% | 28.2 nM | > 10000 nM | 50 nM | 85 ± 6% | 316 nM | 2310 nM | 195 nM | 286 nM | 105 ± 2% | 83 nM | 70.1 ± 1% | > 10000 nM | 4390 nM | 282 nM | 5.25 nM | 281 nM | EC50 (h5-HT2B; [5]): 50 nM; Ki (5-HT2B; 5-HT2B affinity): 6.6 nM; Ki (5-HT2B; 5-HT2B pKi ± SEM): 6.92 nM; max counts (Male C57BL/6J mice; SC): 10.6; ED50 (Male C57BL/6J mice): 4.43 mg/kg; magnitude of peak effect × vehicle (Male C57BL/6J mice; SC): 8.0 × vehicle; maximally effective dose (Male C57BL/6J mice; SC): 30 mg/kg; Ki (5-HT2A receptor [3]): 1.05 nM
3 | COc1ccc2[nH]cc(CCNCc3cccc(F)c3)c2c1 [Compound 5g, N-(3-Fluorobenzyl)-2-(5-methoxy-1H-indol-3-yl)ethan-1-amine] | 8.71 nM | 37 ± 1% | 10 nM | 89.3 ± 1.1% | 47.9 nM | > 10000 nM | 59 nM | 83 ± 5% | 192 nM | 2450 nM | 295 nM | 46 nM | 100 ± 3% | 80 nM | 69.1 ± 1.3% | > 10000 nM | 2670 nM | 319 nM | 21.4 nM | 242 nM | EC50 (h5-HT2B; h5-HT2B pEC50 ± SEM, Ca2+ mobilization, NA = not active, Emax ≤ 15%): 38 nM; Ki (5-HT2B; 5-HT2B pKi ± SEM): 21.9 nM; max counts (Male C57BL/6J mice; SC): 14.5; ED50 (Male C57BL/6J mice): 3.33 mg/kg; magnitude of peak effect × vehicle (Male C57BL/6J mice; SC): 7.3 × vehicle; maximally effective dose (Male C57BL/6J mice; SC): 10 mg/kg
